Assay results: patent publication US20120010075A1 (priority 2009, published 2012)
Read-outs that look alike come from different tables or passages of the source.

Experiments:
[1] = tested on: Phytophthora capsici; test: Fungitoxicity of copper-hydrazone mixtures of different ratios towards Phytophthora capsici (Example 36, Table 12); assay type: cell-based; conditions: Phytophthora capsici
Procedure: In vitro fungitoxicity assays against Phytophthora capsici were conducted using the copper-minus AS medium described in Example 28. Mixtures containing hydrazone compound 16 at 200 nM and CuCl2.2H2O at 0.2 μM (1:1 molar ratio), 0.8 μM (1:4 ratio), 3.2 μM (1:16 ratio), 12.5 μM (1:62.5 ratio), 50 μM (1:200 ratio) and 200 μM (1:1000 ratio) were prepared in copper-minus AS medium. Two-fold dilution series of these mixtures were then prepared in 100 μL aliquots of copper-minus AS medium in flat-bottomed 96-well microtiter plates. A suspension of P. capsici zoospores in Chelex-treated water at 5×10^4 spores per mL was prepared as in Example 28. Microtiter plates were inoculated with 100 μL of the spore suspension and incubated at 25° C. for 48 h before assessing fungal growth by measuring light scattering in a NepheloStar plate reader.
(§1) Growth inhibition was determined by comparing growth in the presence of copper-hydrazone mixture with growth in control wells lacking the copper-hydrazone mixture. EC50 values were calculated from dose-response curves, and are expressed as the amounts of hydrazone or copper in each test mixture at the rates providing 50% inhibition of growth as compared to a control lacking the copper-hydrazone mixture.

[2] = tested on: Leptosphaeria nodorum (LEPTNO); test: Fungitoxicity of copper-hydrazone mixtures of different ratios towards Leptosphaeria nodorum (Example 35, Table 11); assay type: cell-based; conditions: Parastagonospora nodorum
Procedure: In vitro fungitoxicity assays against LEPTNO were conducted using the copper-minus medium described in Example 26. Mixtures containing hydrazone compound 16 at 200 nM and CuCl2 at 0.2 μM (1:1 molar ratio), 0.8 μM (1:4 ratio), 12.5 μM (1:62.5 ratio) and 200 μM (1:1000 ratio) were prepared in copper-minus medium. Two-fold dilution series of these mixtures were then prepared in 100 μL aliquots of copper-minus medium in flat-bottomed 96-well microtiter plates. A suspension of LEPTNO spores in copper-minus medium at 2×10^5 spores per mL was prepared as in Example 26. Microtiter plates were inoculated with 100 μL of the spore suspension and the plates were incubated at 25° C. for 72 h before assessing fungal growth by measuring light scattering in a NepheloStar plate reader.
as §1

[3] = tested on: Phytophthora capsici; test: In vitro fungitoxicity of hydrazones with and without copper towards Phytophthora capsici (Example 28, Table 3); assay type: cell-based; conditions: 0.050 μg/mL, 48 h
[4] = tested on: Phytophthora infestans; assay type: in vivo, Phytophthora infestans on tomato; conditions: hydrazone 50 ppm + 50 μM CuCl2.2H2O, applied 24 h before inoculation, assessed 7 days after inoculation, tomato
[5] = tested on: Leptosphaeria nodorum (LEPTNO); test: Isolated metal-hydrazone complexes versus parent hydrazones, in vitro, Leptosphaeria nodorum (Example 31, Table 7); assay type: cell-based; conditions: Parastagonospora nodorum; 0.1 μg/mL; copper-minus medium; 72 h
[6] = tested on: Phytophthora infestans; assay type: in vivo, Phytophthora infestans on tomato (Outdoor Girl)
[7] = tested on: Leptosphaeria nodorum (LEPTNO); test: In vitro fungitoxicity of hydrazones with and without copper towards Leptosphaeria nodorum (Example 26); assay type: cell-based; conditions: compound 0.05 μg/mL, 72 h at 25° C.
[8] = Hydrazone without CuCl2, read-out: Hydrazone EC50
[9] = Hydrazone:Cu ratio 1 to 1, read-out: Hydrazone EC50 (amount of hydrazone in mixture at EC50)
[10] = Hydrazone:Cu ratio 1 to 4, read-out: Hydrazone EC50 (amount of hydrazone in mixture at EC50)
[11] = Hydrazone:Cu ratio 1 to 62.5, read-out: Hydrazone EC50 (amount of hydrazone in mixture at EC50)
[12] = Hydrazone:Cu ratio 1 to 1000, read-out: Hydrazone EC50 (amount of hydrazone in mixture at EC50)
[13] = hydrazone 200 μM + CuCl2 200 μM
[14] = hydrazone 200 μM + CuCl2 400 μM
[15] = hydrazone 200 μM + CuCl2 800 μM
[16] = hydrazone 200 μM + CuSO4 200 μM
[17] = hydrazone 200 μM + CuSO4 400 μM
[18] = hydrazone 200 μM + CuSO4 800 μM
[19] = hydrazone 400 μM + CuCl2 200 μM
[20] = hydrazone 400 μM + CuCl2 400 μM
[21] = hydrazone 400 μM + CuCl2 800 μM
[22] = hydrazone 400 μM + CuSO4 200 μM
[23] = hydrazone 400 μM + CuSO4 400 μM
[24] = hydrazone 400 μM + CuSO4 800 μM

O=C(N/N=C/c1cc(Cl)cc(Cl)c1O)c1ccccc1 [Example 16]
EC50 [1, 8]: 143 nM
EC50 [1, 9]: 71.1 nM
EC50 [1, 10]: 47.1 nM
EC50 ([1]; Hydrazone:Cu ratio 1 to 16, read-out: Hydrazone EC50 (amount of hydrazone in mixture at EC50)): 27.5 nM
EC50 [1, 11]: 16.6 nM
EC50 ([1]; Hydrazone:Cu ratio 1 to 250, read-out: Hydrazone EC50 (amount of hydrazone in mixture at EC50)): 7.6 nM
EC50 [1, 12]: 4.6 nM
EC50 [2, 8]: > 3200 nM
EC50 [2, 9]: 72.2 nM
EC50 [2, 10]: 43 nM
EC50 [2, 11]: 28.4 nM
EC50 [2, 12]: 14 nM
% Inhn Plus copper Observed ([3]; copper-plus AS medium (CuCl2, 50 μM)): 91.9%
inhibition of growth at 0.05 µg/mL ([3]; Phytophthora capsici, copper-minus AS medium, read-out: % Inhn Minus copper Observed): 0%
TLB % Control [4]: 94.0%
inhibition at 0.1 µg/mL [5]: 19.9%
% Control of Tomato Late Blight ([6]; hydrazone 10 μM + CuCl2 10 μM): 33.5%
% Control of Tomato Late Blight, predicted (in brackets, Colby) ([6]; hydrazone 10 μM + CuCl2 10 μM): 3.1%
% Control of Tomato Late Blight ([6]; hydrazone 10 μM + CuCl2 50 μM): 39.7%
% Control of Tomato Late Blight, predicted (in brackets, Colby) ([6]; hydrazone 10 μM + CuCl2 50 μM): 9.9%
% Control of Tomato Late Blight ([6]; hydrazone 10 μM + CuCl2 200 μM): 69.0%
% Control of Tomato Late Blight, predicted (in brackets, Colby) ([6]; hydrazone 10 μM + CuCl2 200 μM): 39.2%
% Control of Tomato Late Blight ([6]; hydrazone 10 μM + CuCl2 400 μM): 75.7%
% Control of Tomato Late Blight, predicted (in brackets, Colby) ([6]; hydrazone 10 μM + CuCl2 400 μM): 56.6%
% Control of Tomato Late Blight ([6]; hydrazone 10 μM + CuCl2 800 μM): 94.2%
% Control of Tomato Late Blight, predicted (in brackets, Colby) ([6]; hydrazone 10 μM + CuCl2 800 μM): 70.7%
% Control of Tomato Late Blight ([6]; hydrazone 10 μM + CuSO4 10 μM): 26.3%
% Control of Tomato Late Blight, predicted (in brackets, Colby) ([6]; hydrazone 10 μM + CuSO4 10 μM): 3.1%
% Control of Tomato Late Blight ([6]; hydrazone 10 μM + CuSO4 50 μM): 28.1%
% Control of Tomato Late Blight, predicted (in brackets, Colby) ([6]; hydrazone 10 μM + CuSO4 50 μM): 6.2%
% Control of Tomato Late Blight ([6]; hydrazone 10 μM + CuSO4 200 μM): 56.0%
% Control of Tomato Late Blight, predicted (in brackets, Colby) ([6]; hydrazone 10 μM + CuSO4 200 μM): 50.4%
% Control of Tomato Late Blight ([6]; hydrazone 10 μM + CuSO4 400 μM): 77.3%
% Control of Tomato Late Blight, predicted (in brackets, Colby) ([6]; hydrazone 10 μM + CuSO4 400 μM): 76.4%
% Control of Tomato Late Blight ([6]; hydrazone 10 μM + CuSO4 800 μM): 72.2%
% Control of Tomato Late Blight, predicted (in brackets, Colby) ([6]; hydrazone 10 μM + CuSO4 800 μM): 83.1%
% Control of Tomato Late Blight ([6]; hydrazone 10 μM alone, no copper): 1.5%
% Control of Tomato Late Blight ([6]; hydrazone 50 μM + CuCl2 10 μM): 41.9%
% Control of Tomato Late Blight, predicted (in brackets, Colby) ([6]; hydrazone 50 μM + CuCl2 10 μM): 12.8%
% Control of Tomato Late Blight ([6]; hydrazone 50 μM + CuCl2 50 μM): 63.0%
% Control of Tomato Late Blight, predicted (in brackets, Colby) ([6]; hydrazone 50 μM + CuCl2 50 μM): 18.8%
% Control of Tomato Late Blight ([6]; hydrazone 50 μM + CuCl2 200 μM): 91.5%
% Control of Tomato Late Blight, predicted (in brackets, Colby) ([6]; hydrazone 50 μM + CuCl2 200 μM): 45.2%
% Control of Tomato Late Blight ([6]; hydrazone 50 μM + CuCl2 400 μM): 91.7%
% Control of Tomato Late Blight, predicted (in brackets, Colby) ([6]; hydrazone 50 μM + CuCl2 400 μM): 60.9%
% Control of Tomato Late Blight ([6]; hydrazone 50 μM + CuCl2 800 μM): 98.3%
% Control of Tomato Late Blight, predicted (in brackets, Colby) ([6]; hydrazone 50 μM + CuCl2 800 μM): 73.6%
% Control of Tomato Late Blight ([6]; hydrazone 50 μM + CuSO4 10 μM): 56.8%
% Control of Tomato Late Blight, predicted (in brackets, Colby) ([6]; hydrazone 50 μM + CuSO4 10 μM): 12.8%
% Control of Tomato Late Blight ([6]; hydrazone 50 μM + CuSO4 50 μM): 67.7%
% Control of Tomato Late Blight, predicted (in brackets, Colby) ([6]; hydrazone 50 μM + CuSO4 50 μM): 15.5%
% Control of Tomato Late Blight ([6]; hydrazone 50 μM + CuSO4 200 μM): 72.9%
% Control of Tomato Late Blight, predicted (in brackets, Colby) ([6]; hydrazone 50 μM + CuSO4 200 μM): 55.4%
% Control of Tomato Late Blight ([6]; hydrazone 50 μM + CuSO4 400 μM): 78.0%
% Control of Tomato Late Blight, predicted (in brackets, Colby) ([6]; hydrazone 50 μM + CuSO4 400 μM): 78.8%
% Control of Tomato Late Blight ([6]; hydrazone 50 μM + CuSO4 800 μM): 91.6%
% Control of Tomato Late Blight, predicted (in brackets, Colby) ([6]; hydrazone 50 μM + CuSO4 800 μM): 84.8%
% Control of Tomato Late Blight ([6]; hydrazone 50 μM alone, no copper): 11.3%
% Control of Tomato Late Blight ([6]; hydrazone 200 μM + CuCl2 10 μM): 67.8%
% Control of Tomato Late Blight, predicted (in brackets, Colby) ([6]; hydrazone 200 μM + CuCl2 10 μM): 22.7%
% Control of Tomato Late Blight ([6]; hydrazone 200 μM + CuCl2 50 μM): 96.6%
% Control of Tomato Late Blight, predicted (in brackets, Colby) ([6]; hydrazone 200 μM + CuCl2 50 μM): 28.1%
% Control of Tomato Late Blight [6, 13]: 95.8%
% Control of Tomato Late Blight, predicted (in brackets, Colby) [6, 13]: 51.5%
% Control of Tomato Late Blight [6, 14]: 90.8%
% Control of Tomato Late Blight, predicted (in brackets, Colby) [6, 14]: 65.4%
% Control of Tomato Late Blight [6, 15]: 96.7%
% Control of Tomato Late Blight, predicted (in brackets, Colby) [6, 15]: 76.6%
% Control of Tomato Late Blight ([6]; hydrazone 200 μM + CuSO4 10 μM): 78.0%
% Control of Tomato Late Blight, predicted (in brackets, Colby) ([6]; hydrazone 200 μM + CuSO4 10 μM): 22.7%
% Control of Tomato Late Blight ([6]; hydrazone 200 μM + CuSO4 50 μM): 81.3%
% Control of Tomato Late Blight, predicted (in brackets, Colby) ([6]; hydrazone 200 μM + CuSO4 50 μM): 25.1%
% Control of Tomato Late Blight [6, 16]: 93.2%
% Control of Tomato Late Blight, predicted (in brackets, Colby) [6, 16]: 60.4%
% Control of Tomato Late Blight [6, 17]: 95.8%
% Control of Tomato Late Blight, predicted (in brackets, Colby) [6, 17]: 81.2%
% Control of Tomato Late Blight [6, 18]: 97.5%
% Control of Tomato Late Blight, predicted (in brackets, Colby) [6, 18]: 86.5%
% Control of Tomato Late Blight ([6]; hydrazone 200 μM alone, no copper): 21.4%
% Control of Tomato Late Blight ([6]; hydrazone 400 μM + CuCl2 10 μM): 64.4%
% Control of Tomato Late Blight, predicted (in brackets, Colby) ([6]; hydrazone 400 μM + CuCl2 10 μM): 26.9%
% Control of Tomato Late Blight ([6]; hydrazone 400 μM + CuCl2 50 μM): 91.7%
% Control of Tomato Late Blight, predicted (in brackets, Colby) ([6]; hydrazone 400 μM + CuCl2 50 μM): 32.0%
% Control of Tomato Late Blight [6, 19]: 91.7%
% Control of Tomato Late Blight, predicted (in brackets, Colby) [6, 19]: 54.1%
% Control of Tomato Late Blight [6, 20]: 99.8%
% Control of Tomato Late Blight, predicted (in brackets, Colby) [6, 20]: 67.3%
% Control of Tomato Late Blight [6, 21]: 100.0%
% Control of Tomato Late Blight, predicted (in brackets, Colby) [6, 21]: 77.9%
% Control of Tomato Late Blight ([6]; hydrazone 400 μM + CuSO4 10 μM): 41.5%
% Control of Tomato Late Blight, predicted (in brackets, Colby) ([6]; hydrazone 400 μM + CuSO4 10 μM): 26.9%
% Control of Tomato Late Blight ([6]; hydrazone 400 μM + CuSO4 50 μM): 54.5%
% Control of Tomato Late Blight, predicted (in brackets, Colby) ([6]; hydrazone 400 μM + CuSO4 50 μM): 29.2%
% Control of Tomato Late Blight [6, 22]: 87.2%
% Control of Tomato Late Blight, predicted (in brackets, Colby) [6, 22]: 62.6%
% Control of Tomato Late Blight [6, 23]: 96.6%
% Control of Tomato Late Blight, predicted (in brackets, Colby) [6, 23]: 82.2%
% Control of Tomato Late Blight [6, 24]: 98.3%
% Control of Tomato Late Blight, predicted (in brackets, Colby) [6, 24]: 87.3%
% Control of Tomato Late Blight ([6]; hydrazone 400 μM alone, no copper): 25.7%
inhibition of growth at 0.05 µg/mL ([7]; Parastagonospora nodorum, 72 h, copper-minus medium, read-out: LEPTNO % Inhn. Minus Copper Observed): 0%
LEPTNO % Inhn. Plus Copper Observed ([7]; copper-plus medium (CuCl2.2H2O)): 97.1%
